Test results: patent US20250041275A1, “COMPOSITION FOR USE IN THE TREATMENT OF A DISEASE” (RAMBAM MED-TECH LTD., priority 2022, published 2025)

Legend:
[1] = tested on: cerulein-induced acute pancreatitis; test: cerulein-induced acute pancreatitis (AP) in WT and Hpa-Tg mice; format: in vivo; details: for pancreato-protective effects against AP: early (pre) or post treatment, 10 mg/mouse, FIGS. 3-4; for tolerability: 16 and 32 mg/kg doses; for severity of AP: 16 and 32 mg/kg doses i.p., pre-treatment, FIGS. 5 and 6
Procedure: (§1) Studies utilized wild type (WT) BALB/c mice and heparanase transgenic (Hpa-Tg) mice in which the human heparanase gene is driven by a constitutive β-actin promoter (19) in a BALB/c genetic background. Animals were fed standard mouse chow and tap water ad libitum. All experiments were approved and performed according to the Technion's guidelines of the Committee for the Supervision of Animal Experiments.
Mice were injected with either cerulein (intraperitoneally, […], 5 times at 1 hour apart) (Sigma-Aldrich), or saline (0.9% NaCl) (control group). Additional groups of mice were pretreated with either Aspirin (250 mg/kg, SC) and Trehalose (2000 mg/kg, ip) alone or combined. Additional groups of animals were pre- and post-treated with Aspirlose (10 mg/mouse). […] Finally, the inventors tested the effectivity of “Indose” and “Diclose” at various concentrations against AP. Mice were sacrificed 24 hours later, and serum samples and pancreatic tissue were collected for measurements of blood amylase and lipase levels, pancreatic index (pancreas/body weight ratio), and for histological analysis. Portion of pancreas tissues were also homogenized, and lysate samples were subjected to immunoblotting.
Pancreatic tissue samples were fixed in 10% neutral-buffered formalin progressively dehydrated in graduated alcohol and embedded in paraffin. Five-micron (5 μm) sections were stained with hematoxylin and eosin (H&E).

[2] = acute toxicity, intraperitoneal injection in wild type mice; details: mouse, in vivo, ip; intraperitoneal injection, sterile water as carrier, groups of 5 wild type mice
Procedure: (§2) Further, the inventors examined the acute toxicity of the compounds Indose and Diclose. A series of dosages: 8 mg/kg, 32 mg/kg, 64 mg/kg, 128 mg/kg, 256 mg/kg, 512 mg/kg, 768 mg/kg, 1024 mg/kg, 1,100 mg/kg, and 1,200 mg/kg were injected by intraperitoneal injection in the presence of sterile water as carrier. Each dosage was injected to a group of 5 wild type mice.

wild type mice = test: as above; details: mouse, in vivo, ip; for mortality: 500 mg/kg
Procedure: as §2

[3] = tested on: ischemia-reperfusion acute kidney injury; test: ischemia-reperfusion (I/R) acute kidney injury (AKI) model in Hpa-Tg mice; format: in vivo; details: pretreatment; for expression level of NGAL in kidney / expression level of KIM-1 in kidney: female Hpa-Tg mice; for expression level of NGAL in kidney / NGAL expression in kidney: FIG. 11A; for expression level of KIM-1 in kidney: FIG. 11B; for NGAL expression in kidney: male Hpa-Tg mice; for kidney weight normalized to body weight (KW/BW): Hpa-Tg mice, 48 h after AKI, FIGS. 7A and 8A; for gross morphology and histopathology of kidneys: Indose 16 mg/kg i.p., Diclose 32 mg/kg i.p., male and female Hpa-Tg mice, FIGS. 9 and 10; for increase of blood urea nitrogen (BUN) following AKI / increase of serum creatinine (SCr) following AKI: male Hpa-Tg mice (trend persisted in females), 48 h from AKI induction
Procedure: as §1
(§3) Renal ischemia was induced by clamping the renal artery of both kidneys for 30 min followed by reperfusion (I/R). The inventors tested the effectivity of “Indose” and “Diclose” before induction of ischemia (e.g., “prophylactic effect” or “pre-treatment”) or after (e.g., “treating effect” or “post-treatment”), using the dosing as disclosed hereinabove. Mice were sacrificed 48 hours later, and serum samples and kidney tissue were collected for measurements of blood creatinine and urea nitrogen levels, kidney index (kidney/body weight ratio), and for histological analysis. Portion of kidney tissues were also homogenized, and lysate samples were subjected to mRNA extraction, and expression analysis of neutrophil gelatinase-associated lipocalin (NGAL) and kidney injury molecule-1 (KIM-1).
(§4) The inventors used the ischemia-reperfusion (I/R)-AKI model in mice. The pathogenesis of this disease was evaluated based on kidney edema, blood creatinine (Scr), and blood urea nitrogen (BUN) levels were determined 48 hours following AKI induction. Further, the inventors performed histopathological analysis, as well as expression analysis of the renal injury biomarkers neutrophil gelatinase-associated lipocalin (NGAL), kidney injury molecule-1 (KIM-1).
AKI was induced in the absence or presence of pretreatment with Indose (16 mg/kg, i.p.) or Diclose (32 mg/kg, i.p.), respectively in Hpa-Tg mice (males and females). Untreated Hpa-Tg male and female mice that underwent sham operation served as control group. […] In male mice pretreated with Diclose and Indose, a reduction in NGAL expression was also observed (FIG. 11A). This trend persisted in female mice although the elevation in SCr and BUN following AKI was to a lesser extent.

[4] = tested on: ischemia-reperfusion acute kidney injury; test: ischemia-reperfusion (I/R) acute kidney injury (AKI) model in WT FVB/N mice; format: in vivo; details: administered short time after induction of AKI, FIGS. 13A-13C
Procedure: as §3
as §4, with “(KIM-1). […]” for “(KIM-1).”

[5] = tested on: cerulein-induced acute pancreatitis; details: previous studies; cited from earlier work
[6] = WT and Hpa-Tg mice, cerulein treatment, FIG. 1

Compound	pancreato-protective effects against AP [1]	tolerability ([1]; WT and Hpa-Tg mice)	severity of AP ([1]; WT and Hpa-Tg mice)	LD50 [2] [mg/kg]	toxicity (overall) (wild type mice)	mortality (wild type mice)	expression level of NGAL in kidney [3]	expression level of KIM-1 in kidney [3]	NGAL expression in kidney [3]	kidney weight normalized to body weight (KW/BW) [3]	gross morphology and histopathology of kidneys [3]	increase of blood urea nitrogen (BUN) following AKI [3]	increase of serum creatinine (SCr) following AKI [3]	effects on AKI, post-treatment [4]	tissue edema (histopathology of pancreas) ([1]; WT and Hpa-Tg mice exposed to cerulein, FIG. 2)	elevation in biochemical parameters (serum amylase and lipase) [1, 6]	pancreatic edema (pancreatic index, % Pancreatic weight/Body weight) [1, 6]	pancreas edema and inflammation, induction of cytokines and signaling molecules following cerulein administration [5]
CC(=O)Oc1ccccc1C(=O)OCC1O[C@H](O[C@H]2O[C@H](COC(=O)c3ccccc3OC(C)=O)[C@@H](O)[C@H](O)[C@H]2O)[C@H](O)[C@@H](O)[C@@H]1O (some centres unmarked) [Asprilose dimer]	pancreato-protective effects																	
CC(=O)Oc1ccccc1C(=O)OC[C@H]1O[C@H](O[C@H]2OC(CO)[C@@H](O)[C@H](O)[C@H]2O)[C@H](O)[C@@H](O)[C@@H]1O (some centres unmarked) [Asprilose mono]	pancreato-protective effects																	
O=C(Cc1ccccc1Nc1c(Cl)cccc1Cl)OC[C@H]1O[C@H](O[C@H]2O[C@H](CO)[C@@H](O)[C@H](O)[C@H]2O)[C@H](O)[C@@H](O)[C@@H]1O [Diclose, Trehalose-Dichlorofenac]		well tolerated	reduced the severity of AP	780	low toxicity	No mortality was observed	effectively reduced	effectively reduced	reduction	significantly reduced	resembled kidneys of the ‘Sham’ control group	remarkably attenuated	remarkably attenuated	curative effects of AKI, with the effects of Diclose being more pronounced				
Cc1c(CC(=O)OC[C@H]2O[C@H](O[C@H]3O[C@H](CO)[C@@H](O)[C@H](O)[C@H]3O)[C@H](O)[C@@H](O)[C@@H]2O)c2ccccc2n1C(=O)c1ccc(Cl)cc1 [Indose, Trehalose-Indomethacin]		well tolerated	reduced the severity of AP	900	low toxicity	No mortality was observed	effectively reduced	effectively reduced	reduction	significantly reduced	resembled kidneys of the ‘Sham’ control group	remarkably attenuated	remarkably attenuated	curative effects				
CC(C)CCC[C@@H](C)[C@H]1CC[C@H]2[C@@H]3CC[C@H]4C[C@@H](O[C@@H]5O[C@H](COS(=O)(=O)O)[C@@H](O[C@H]6O[C@H](COS(=O)(=O)O)[C@@H](O[C@H]7O[C@H](COS(=O)(=O)O)[C@@H](O[C@H]8O[C@H](COS(=O)(=O)O)[C@@H](OS(=O)(=O)O)[C@H](OS(=O)(=O)O)[C@H]8OS(=O)(=O)O)[C@H](OS(=O)(=O)O)[C@H]7OS(=O)(=O)O)[C@H](OS(=O)(=O)O)[C@H]6OS(=O)(=O)O)[C@H](OS(=O)(=O)O)[C@H]5OS(=O)(=O)O)CC[C@]4(C)[C@H]3CC[C@]12C [PG545, reference compound]															markedly restored	markedly reduced	markedly reduced	attenuated markedly
